The source of these data is article PMC3914206.

Common to all, as to type: binding
Common to all, as to details: Compound Concentration 10 µM

For assay [1], the target named is T1, panel of 442 kinases (Homo sapiens, UniProt P07948).
T1 construct: purchased KINOMEscan
An excerpt:
(§1) We assessed the selectivity of members of this scaffold using the KINOMEscan methodology across a near comprehensive panel of 442 kinases [[18,27]].

The target in assay [2] is T2, panel of 442 kinases (Homo sapiens, UniProt Q8IVH8).
T2 construct: purchased KINOMEscan
T2 sequence (Q8IVH8 1-894): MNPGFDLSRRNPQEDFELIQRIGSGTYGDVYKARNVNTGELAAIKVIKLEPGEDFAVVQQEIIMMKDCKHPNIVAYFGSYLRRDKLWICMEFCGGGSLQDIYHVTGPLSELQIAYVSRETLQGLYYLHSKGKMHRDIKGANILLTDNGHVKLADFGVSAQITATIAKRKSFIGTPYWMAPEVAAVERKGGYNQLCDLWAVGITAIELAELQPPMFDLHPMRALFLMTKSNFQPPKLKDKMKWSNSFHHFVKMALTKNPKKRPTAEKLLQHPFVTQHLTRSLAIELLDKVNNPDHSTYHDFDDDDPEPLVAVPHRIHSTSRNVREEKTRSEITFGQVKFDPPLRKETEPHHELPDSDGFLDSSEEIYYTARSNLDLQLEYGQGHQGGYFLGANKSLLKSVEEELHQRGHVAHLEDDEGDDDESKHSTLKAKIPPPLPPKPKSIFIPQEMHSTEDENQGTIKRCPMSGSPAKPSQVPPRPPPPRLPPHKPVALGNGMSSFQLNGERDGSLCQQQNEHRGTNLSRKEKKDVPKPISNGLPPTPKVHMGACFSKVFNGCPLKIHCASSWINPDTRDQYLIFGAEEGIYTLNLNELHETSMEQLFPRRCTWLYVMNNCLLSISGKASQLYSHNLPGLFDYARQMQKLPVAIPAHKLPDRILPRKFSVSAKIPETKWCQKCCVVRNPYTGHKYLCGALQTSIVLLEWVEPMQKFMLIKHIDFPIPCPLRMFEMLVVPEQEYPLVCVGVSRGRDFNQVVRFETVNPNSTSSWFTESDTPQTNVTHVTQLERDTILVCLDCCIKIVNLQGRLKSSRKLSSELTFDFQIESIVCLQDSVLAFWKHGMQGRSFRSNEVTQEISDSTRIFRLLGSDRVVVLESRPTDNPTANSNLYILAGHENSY
Excerpt: as §1

Assay [3] concerns the target T3, panel of 442 kinases (Homo sapiens, UniProt Q15418).
T3 construct: purchased KINOMEscan
Excerpt: as §1

T3 sequence (Q15418 whole entry): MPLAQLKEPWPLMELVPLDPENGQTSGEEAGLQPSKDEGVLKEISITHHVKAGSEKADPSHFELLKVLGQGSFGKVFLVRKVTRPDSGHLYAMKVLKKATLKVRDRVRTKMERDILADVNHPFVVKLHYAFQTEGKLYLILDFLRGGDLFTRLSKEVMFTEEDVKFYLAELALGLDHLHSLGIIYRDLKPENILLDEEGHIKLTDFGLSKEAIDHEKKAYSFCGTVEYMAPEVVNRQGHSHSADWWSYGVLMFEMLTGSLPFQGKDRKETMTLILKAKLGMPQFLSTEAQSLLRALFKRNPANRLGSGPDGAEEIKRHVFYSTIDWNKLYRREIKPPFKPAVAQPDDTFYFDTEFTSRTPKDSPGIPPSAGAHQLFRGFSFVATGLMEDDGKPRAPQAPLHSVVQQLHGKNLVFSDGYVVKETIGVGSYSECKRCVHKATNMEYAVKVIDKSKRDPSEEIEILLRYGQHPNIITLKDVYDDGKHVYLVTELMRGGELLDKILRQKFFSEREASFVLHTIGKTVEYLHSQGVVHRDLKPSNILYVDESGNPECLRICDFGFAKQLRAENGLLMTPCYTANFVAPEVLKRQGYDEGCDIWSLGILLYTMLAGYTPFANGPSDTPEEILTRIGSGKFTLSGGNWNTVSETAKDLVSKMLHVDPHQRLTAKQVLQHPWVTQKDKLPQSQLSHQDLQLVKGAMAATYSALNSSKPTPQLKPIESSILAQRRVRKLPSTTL
T1 sequence (P07948 whole entry): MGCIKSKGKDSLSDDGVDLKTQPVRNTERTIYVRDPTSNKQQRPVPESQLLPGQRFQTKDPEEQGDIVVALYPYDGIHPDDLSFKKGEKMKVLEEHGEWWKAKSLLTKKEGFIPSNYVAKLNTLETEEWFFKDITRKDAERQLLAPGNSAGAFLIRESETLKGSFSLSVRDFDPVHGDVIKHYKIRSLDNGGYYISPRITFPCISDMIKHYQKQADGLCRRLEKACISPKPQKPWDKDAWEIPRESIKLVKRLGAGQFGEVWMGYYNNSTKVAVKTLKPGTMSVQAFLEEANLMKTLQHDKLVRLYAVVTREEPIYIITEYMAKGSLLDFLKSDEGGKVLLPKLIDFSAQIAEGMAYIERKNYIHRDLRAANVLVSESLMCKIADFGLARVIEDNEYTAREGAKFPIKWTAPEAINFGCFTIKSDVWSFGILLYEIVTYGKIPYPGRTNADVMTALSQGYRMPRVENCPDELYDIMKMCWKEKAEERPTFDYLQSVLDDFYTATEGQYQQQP

For `CCOc1cc(C(=O)N2CCC(N3CCN(C)CC3)CC2)ccc1Nc1ncc2c(n1)N(C1CCCC1)c1ccccc1C(=O)N2C` [Compound 26], the “KINOMEscan: LYN” value on panel of 442 kinases [1] is given as 100. Also, the “KINOMEscan: MAP4K3” value at panel of 442 kinases [2] turned out to be 98. In addition, on panel of 442 kinases [3], the “KINOMEscan: RSK1(Kin.Dom.1-N-terminal)” value is listed as 100 and the “KINOMEscan: RSK1(Kin.Dom.2-C-terminal)” value came to 88.
Regarding `COc1cc(C(=O)N2CCC(N3CCN(C)CC3)CC2)ccc1Nc1ncc2c(n1)N1CCc3cccc(c31)C(=O)N2C` [Compound 24], the “KINOMEscan: LYN” value at panel of 442 kinases [1] stood at 83. On panel of 442 kinases [3], the “KINOMEscan: RSK1(Kin.Dom.1-N-terminal)” value was 71 and the “KINOMEscan: RSK1(Kin.Dom.2-C-terminal)” value came out at 22.
On to `COc1cc(C(=O)N2CCC(N3CCN(C)CC3)CC2)ccc1Nc1ncc2c(n1)N(C)c1ccccc1C(=O)N2C` [15 (LRRK2-IN-1)], for which, at panel of 442 kinases [1], the “KINOMEscan: LYN” value is listed as 100. Besides, the “KINOMEscan: MAP4K3” value on panel of 442 kinases [2] stood at 71. For the same molecule, at panel of 442 kinases [3], the “KINOMEscan: RSK1(Kin.Dom.1-N-terminal)” value is listed as 73 and the “KINOMEscan: RSK1(Kin.Dom.2-C-terminal)” value came out at 10.
Turning to `COc1cc(C(=O)N2CCC(N3CCN(C)CC3)CC2)ccc1Nc1ncc2c(n1)N(C1CCCC1)c1ccccc1C(=O)N2C` [Compound 25, 11-cyclopentyl-2-((2-methoxy-4-(4-(4-methylpiperazin-1-yl)piperidine-1-carbonyl)phenyl)amino)-5-methyl-5H-benzo[e]pyrimido[5,4-b][1,4]diazepin-6(11H)-one], the “KINOMEscan: LYN” value at panel of 442 kinases [1] stood at 85. Moreover, on panel of 442 kinases [2], the “KINOMEscan: MAP4K3” value is 100. In addition, at panel of 442 kinases [3], the “KINOMEscan: RSK1(Kin.Dom.1-N-terminal)” value amounted to 75 and the “KINOMEscan: RSK1(Kin.Dom.2-C-terminal)” value is on record as 63.
